Assay results taken from patent US20210024499A1, “OXIDIZED BIS(3-INDOLYL)METHANES AND USES THEREOF” (Sanford Burnam Prebys Medical Discovery Institute, priority 2018, published 2021).

Tests used:
[1] = test system: HCT116 cancer cells; assay: Cell viability (MTT) assay, HCT116; assay type: cell-based; conditions: Homo sapiens, HCT-116; inhibiting the growth of HCT116 cancer cells, cell viability assay (Table 5)
Method: Cell viability was analyzed by using a colorimetric 3-(4,5-dimethylthiazol-[…]2-yl)-2,5-diphenyletetrazolium Bromide (MTT) assay that determines mitochondrial dehydrogenase activities in the living cells with a colorimetric method. Cells treated with test compounds were incubated with MTT and their effect on the viability of the cells was assayed by the ability of treated cells to reduce the yellow tetrazolium dye MTT to its insoluble formazan, which has a purple color. […]

[2] = test system: PyMT mammary tumor; assay: MMTV-PyMT mice breast cancer model; assay type: in vivo; conditions: for growth of PyMT mammary tumor: 18 days
Method: Female MMTV-PyMT mice of 12 weeks old were randomly divided into two groups (n=7 each), treated with a daily oral dose of test compound for 18 days. Standard histopathological analysis of tumor tissue was performed (see Example A-19). Test compounds were dissolved in DMSO and diluted with normal saline containing 5.0% (V/V) Tween-80 to a final concentration 0.5 mg/ml. Normal saline with DMSO and 5.0% Tween-80 was employed as the vehicle control.
4 μm thick sections were deparaffinized and rehydrated using xylene and a graded series of ethanol (100, 95, 85, 75, 50%), followed by washing in PBS. Antigen retrieval was performed in 10 mM sodium citrate buffer (pH 6.0), which was microwaved at 100° C. for 20 minutes. After rinsed twice in PBS, sections were blocked at room temperature for 1 hour by using 10% normal goat serum, followed by incubation with anti-ki-67, anti-cleaved-caspase-3, overnight (at least 17 hours) at 4° C. Colors were developed with a DAB horseradish peroxidase color development kit.

[3] = test system: MEFs; assay: Cell viability (MTT), MEFs; assay type: cell-based, mouse; conditions: 6 hours, MTT (FIG. 8)
Method: (§1) Cell viability was analyzed by using a colorimetric 3-(4,5-dimethylthiazol-[…]2-yl)-2,5-diphenyletetrazolium Bromide (MTT) assay that determines mitochondrial dehydrogenase activities in the living cells with a colorimetric method. Cells treated with test compounds were incubated with MTT and their effect on the viability of the cells was assayed by the ability of treated cells to reduce the yellow tetrazolium dye MTT to its insoluble formazan, which has a purple color.
(§2) The apoptotic effect of Compound 1 was examined in mouse embryonic fibroblast (MEF) and MEF lacking Nur77 (Nur77^−/−MEF). […] Induction of PARP cleavage (as performed in Example A-7) in MEFs by Compound 1 at 0.5 μM was also attenuated in Nur77^−/−MEFs.

[4] = test system: Nur77−/−MEFs; assay: Cell viability (MTT), Nur77-/- MEFs; assay type: cell-based, mouse; conditions: 6 hours, MTT (FIG. 8)
Method: as §1, §2

[5] = test system: MEFs; assay: DAPI staining for apoptosis, MEFs; assay type: cell-based, mouse; conditions: 0.5 μM
Text: The apoptotic effect of Compound 1 was also examined in mouse embryonic fibroblast (MEF) and MEF lacking Bcl-2 (Bcl-2^−/−MEF). […] Apoptotic cells were counted in 200 cells.

[6] = test system: MEF cells; assay: Mitochondrial membrane potential (JC1), MEF; assay type: cell-based, mouse; conditions: 0.5 μM, 6 h
Method: (§3) Loss of mitochondrial membrane potential (Avm) represents one of the hallmarks of apoptosis. A JC-1 probe was employed to measure mitochondrial depolarization in cancer cells. MDA-MB-231 breast cancer cells were treated with different concentration of test compounds for 6 hours. JC-1 staining solution (5 μg/ml) was added at 37° C. for 20 min. After washing with PBS twice, mitochondrial membrane potentials were monitored by determining the relative amounts of dual emission from a multiple fluorescence reader. The fluorescence in cells was quantitatively analyzed by flow cytometry. Mitochondrial depolarization is depicted by an increase in the green/red fluorescence intensity ratio. ROS were monitored with the oxiadtion-senstive fluorescent probe 2′7′-dichlorodihydroflurescenin diacetate (DCF-DA).
(§4) In addition, Bcl-2^−/−MEF cells were more resistant than the parental MEF cells to Compound 1 in its induction of the mitochondrial membrane potential loss measured by JC1 staining and in the release of mitochondrial ROS (as performed in Example A-12).

[7] = test system: Bcl-2−/−HeLa cells; assay: Mitochondrial membrane potential (JC1), Bcl-2-/- cells of the MEF study; assay type: cell-based; conditions: Bcl-2−/−HeLa cells as printed, 0.5 μM, 6 h
Method: as §3, §4

[8] = test system: HeLa cells; assay: Mitochondrial membrane potential (JC1), HeLa; assay type: cell-based; conditions: 6 h
Method: as §3
(§5) Furthermore, Nur77^−/−HeLa cells were more resistant than the parental HeLa cells to Compound 1 in its induction of the mitochondrial membrane potential loss measured by JC1 staining and in the release of mitochondrial ROS (as performed in Example A-12).
In addition, Bcl-2^−/−HeLa cells were more resistant than the parental HeLa cells to Compound 1 in its induction of the mitochondrial membrane potential loss measured by JC1 staining and in the release of mitochondrial ROS (as performed in Example A-12).

[9] = test system: Nur77−/− HeLa cells; assay: Mitochondrial membrane potential (JC1), Nur77 knockout HeLa; assay type: cell-based; conditions: 1 μM, 6 h
Method: as §3, §5

[10] = target: T1, Nur77-LBD (Homo sapiens, UniProt P22736); assay: Circular dichroism (CD) binding to Nur77-LBD; conditions: purified Nur77-LBD, spectra changed at 50° C. and above (FIG. 9)
T1 construct: Protein spectra of purified Nur77-LBD at temperature 50° C. and above changed substantially; His (N); made in house
T1 sequence (P22736 360-595 limits assumed): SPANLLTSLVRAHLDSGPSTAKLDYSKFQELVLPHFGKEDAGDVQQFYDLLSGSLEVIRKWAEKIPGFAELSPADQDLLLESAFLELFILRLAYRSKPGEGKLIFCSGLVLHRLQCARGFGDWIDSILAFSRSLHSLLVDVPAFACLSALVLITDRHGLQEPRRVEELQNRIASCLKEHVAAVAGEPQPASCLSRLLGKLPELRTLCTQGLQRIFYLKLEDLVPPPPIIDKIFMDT
Method: Stock solutions of 100 mM test compound in ethanol were added to 0.5 ml of 1 μM purified His-proteins in PBS, pH 7.6. CD spectra were obtained in a 0.2 cm path length cell at temperature between 25° C. to 65° C. by using an AVIV 62 DS spectropolarimeter for a wavelength range at 220 nm. Three spectra were corrected for background and averaged for each sample. The Kd was determined using nonlinear regression analysis for a one-site binding model (χ2>0.98).

[11] = test system: Nur77 and pBind-RXRa-LBD-E453,6A; assay: Mammalian one hybrid assay, RXRa-LBD/E453,6A mutant with Nur77; assay type: cell-based; conditions: cells transfected with Nur77 and pBind-RXRa-LBD-E453,6A
Method: HEK293T cells were co-transfected with pG5 Luciferase reporter together with the plasmid encoding RXRa-LBD fused with the Gal4 DNA-binding domain and other expression plasmids. After transfection, cells were treated with DMSO or a test compound, and assayed by using the Dual-Luciferase Reporter Assay System (Promega). Transfection efficiency was normalized to Renilla luciferase activity.
To exclude the possibility that Compound 1 acted on RXRa, Glu453 and Glu456 in the RXRa activation function 2 (AF2) region were substituted with Ala and the resulting mutant, RXRa-LBD/E453,6A, was used.

[12] = test system: Nur77 interaction with Bcl-2; assay: Confocal microscopy colocalization of Nur77 with Bcl-2; assay type: cell-based

## FC(F)(F)c1ccc([C+](c2c[nH]c3ccccc23)c2c[nH]c3ccccc23)cc1 [Compound 1, Bis(1H-indol-3-yl)(4-(trifluoromethyl)phenyl)methylium methanesulfonate]
[1]
  IC50: < 500 nM
[2]; 3 mg/kg
  expression levels of mTOR markers p-S6 and p-mTOR in tumor: markedly reduced
[2]; 3 mg/kg daily oral
  growth of PyMT mammary tumor: inhibited the growth of PyMT mammary tumor
[2]; 5 mg/kg daily oral
  growth of PyMT mammary tumor: inhibited the growth of PyMT mammary tumor
[2]; 5 mg/kg, Western blotting
  expression levels of proliferation markers PCNA and Ki67 in tumor tissues: markedly reduced
[2]; 5 mg/kg, immunostaining
  cleaved caspase 3 in tumor tissue specimens: enhanced expression of cleaved caspase 3
[3]
  growth of MEFs: dose-dependently inhibited the growth of MEFs
[4]
  growth inhibitory effect relative to MEFs: significantly diminished
[5]
  cells with chromatin condensation and nuclear fragmentation (DAPI): 40%
[6]
  JC1 green to red ratio (control 100%): 400%
[7]
  JC1 green to red ratio (control 100%): 150%
[8]; 0.5 μM
  JC1 green to red ratio (control 100%): 195%
[8]; 1 μM
  JC1 green to red ratio (control 100%): 190%
[9]
  JC1 green to red ratio: no significant change
[10]
  binding to Nur77-LBD (CD spectra): direct binding
[11]
  reporter transcriptional activity: could still activate the reporter gene transcription
[12]
  colocalization of transfected GFP-Nur77 (and GFP-Nur77-LBD) with Bcl-2: promoted extensive colocalization
